Source: paper PMC8765781, “A platform of assays for the discovery of anti-Zika small-molecules with activity in a 3D-bioprinted outer-blood-retina model” (PLoS ONE, 2022)
Like-named read-outs stand apart in the source and are kept apart here. *1 amine or outer side, *2 acyl side, *3 side chain or, on linkers, in order; H or OH if unused. Where a SMILES comes first, the peptide text is derived from it. [ ]: non-standard residue; d: D form. The star is where a group is joined. ξ: configuration not given here. X2 = CCC(C)(N*)C(=O)C1CC[C@@H](C(=O)N[CH]Cc2ccccc2)N1; X1 = O=C([C@@H]1CC(O)CN1[*:1])[*:2]; aIle = CC[C@@H](C)[C@H](N)C(=O)O; Thr(3ξ) = CC(O)[C@H](N)C(=O)O; ξIva = CCC(C)(N)C(=O)O; Aib = CC(C)(N)C(=O)O

Legend:
[1] = system: DENV (Dengue virus type 2, strain New Guinea C)
in vitro [2] = conditions: human
[3] = system: ZIKV-mCherry (Cambodian strain FSS13025); assay: microbe, parasite or virus in culture; type: cell-based, Zika virus
[4] = system: wild-type ZIKV (Ugandan MR766 strain) in Vero cells; assay: ZIKV cytopathic effect (CPE) inhibition qHTS assay, CellTiter-Glo readout; type: cell-based, Zika virus; conditions: for IC50: read-out: ZIKV-infection (CPE, ZIKV Antiviral Assays), IC50
[5] = system: caspase-3 activity induced by ZIKV in Vero cells; assay: cells; type: cell-based; conditions: read-out: Caspase 3 (ZIKV Antiviral Assays), IC50
[6] = system: ZIKV-RLuc (Cambodian strain FSS13025); assay: microbe, parasite or virus in culture; type: cell-based, Zika virus; conditions: for IC50: read-out: Rluc-ZIKV (ZIKV Antiviral Assays), IC50
in vitro [7] = conditions: African green monkey
[8] = system: mCherry-ZIKV in human neuronal progenitor cells; assay: microbe, parasite or virus in culture; type: cell-based, Zika virus
[9] = Zika virus, Vero, read-out: Log AC50 (M) (converted)
[10] = Zika virus, Vero, from Hill fit of the response curve, 50% of maximum activity response, 194 cherry-picked compounds, protocol name not given, read-out: AC50
[11] = Zika virus, Vero, potency in log units (Molar) from Hill fit of the response curve, 194 cherry-picked compounds, protocol name not given, read-out: Log AC50 (converted)
[12] = Zika virus, Vero cells, wild-type ZIKV MOI 1, 48 hr, unit inferred
[13] = curve class v2 (Inglese et al. 2006)
[14] = difference between neutral response and maximum compound response
[15] = Zika virus, ZIKV-infected Vero cells, 48 hr, unit inferred

| Structure (SMILES) | YFV active Yes/No (YFV (YFV 17D)) | WHV active Yes/No (WNV (Kern515/WN02)) | ZIKV active Yes/No (ZIKV) | DENV active Yes/No [1] | CC-v2 (curve class of the dose response curve) [3] | Efficacy (difference between neutral response and maximum compound response) [3] | Max Resp (difference between neutral response and response at highest compound concentration) [3] | Efficacy [4] | AC50 ([4]; Zika virus, Vero) [M] | IC50 ([4]; Zika virus, Vero, 48 h) [µM] | IC50 ([5]; Zika virus, Vero, 48 h) [µM] | IC50 ([6]; Zika virus, Vero, 48 h) [µM] | AC50 ([3]; Zika virus, Vero) [M] | AC50 [3, 9] [M] | further results |
| --- | --- | --- | --- | --- | --- | --- | --- | --- | --- | --- | --- | --- | --- | --- | --- |
| CCN(CC)CCCC(C)Nc1ccnc2cc(Cl)ccc12 (centres unmarked) [NCGC00015256, chloroquine, reference compound] | No | No | No | No | – | – | – | – | – | – | – | – | – | – | SI value YFV (CC50/EC50) (YFV (YFV 17D)): 1.2 |
| COc1ccc(C(O)C(C)OC2OC(CO)C(O)C(O)C2O)cc1 (centres unmarked) [NCGC00385130-01] | – | – | – | – | 4 | 0 | -28.221 | -87.993 | 2.02e-05 | 20.2 | 0.01 | 0.001 | – | – | CC50 (in vitro [2]): > 30 µM; CC-v2 (curve class classification of the dose response curve) [4]: -3; AC50 [4, 9]: 2.02e-05 M; CC50 at 48 h (in vitro [7]; Vero cells): > 50 µM |
| C=C(C)C1Cc2c(ccc3c2OCC(c2ccc(O)cc2O)C3)O1 (centres unmarked) [NCGC00347653-02] | – | – | – | – | 5 | 33.59 | -97.958 | -16.545 | 7.18e-08 | 0.07 | 16.2 | 0.02 | – | – | CC50 (in vitro [2]): > 30 µM; Curve class [4]: -3; AC50 ([4]; Zika virus, Vero, read-out: Log AC50 (converted)): 7.18e-08 M; Emax ([4]; Zika virus, Vero, read-out: Max response): -30.5%; CC50 at 48 h (in vitro [7]; Vero cells): > 50 µM |
| CCC/C=C/C(=O)O[C@H]1CC(C)(C)CC2[C@@]13[C@H](O)C[C@]1(C)[C@@]2(CCC2[C@@]4(C)CC[C@H](O[C@@H]5O[C@H](C(=O)O)[C@@H](O)[C@H](O[C@@H]6O[C@H](CO)[C@H](O)[C@H](O)[C@H]6O[C@@H]6O[C@@H](C)[C@H](O)[C@@H](O)[C@H]6O[C@@H]6OC[C@](O)(CO)[C@H]6O)[C@H]5O[C@@H]5O[C@H](CO)[C@H](O)[C@H](O)[C@H]5O)C(C)(C)C4CC[C@]21C)O[C@H]3O (some centres unmarked) [NCGC00385970-01] | – | – | – | – | -1.3 | -68.04 | -100.305 | – | – | – | – | 2.23 | 2.53e-06 | 2.53e-06 | AC50 [4, 10]: 3.09e-06 M; AC50 [4, 11]: 3.09e-06 M; IC50 [4, 12]: 3.09 µM; CC-v2 (curve class classification of the dose response curve) [4, 13]: -1.2; Efficacy [4, 14]: -40.513; IC50 [5, 15]: 0.5 µM; CC50 (in vitro [7]): > 50 µM |
| Cc1ccc2c(c1)Cc1c(C(=O)NN3CCCCC3)nn(-c3ccc(Cl)cc3Cl)c1-2 [NCGC00167846-01] | No | No | Yes | Yes | -1.3 | -70.543 | -100.29 | – | – | – | – | – | 6.7e-07 | 6.7e-07 | Activity against ZIKV (ZIKV): active against both DENV and ZIKV; SI value ZIKV (CC50/EC50) (ZIKV): 31; CC-v2 (curve class classification v2 of the dose response curve) [6]: -1.1; Efficacy (difference between neutral response and maximum compound response) [6]: -95.949; Max Resp (difference between neutral response and compound response for highest compound concentration) [6]: -99.943; AC50 ([6]; Zika virus, Vero): 4.14e-06 M; AC50 [6, 9]: 4.14e-06 M; AC50 (Vero cells): 4.14 µM; Log AC50 (M) (Vero cells): -5.3827 M; Antiviral activity in human NPC [8]: effectively inhibited ZIKV in NPC cells; Efficacy [8]: -97.35; Max Resp [8]: -80.167; AC50 ([8]; Zika virus, Neuronal progenitor cell): 3.98e-05 M; AC50 ([8]; Zika virus, Neuronal progenitor cell, read-out: Log AC50 (M) (converted)): 3.98e-05 M; Activity against DENV [1]: active against both DENV and ZIKV; SI value DENV (CC50/EC50) [1]: 16 |
| CC1(C)CC[C@]2(C(=O)O)CC[C@]3(C)C(=CCC4[C@@]5(C)C[C@H](O)[C@H](O[C@@H]6OC[C@H](O)[C@H](O)[C@H]6O)[C@@](C)(CO)C5CC[C@]43C)[C@@H]2C1 (some centres unmarked) [NCGC00384893-01] | – | – | – | – | -1.4 | -59.557 | -100.29 | -24.539 | 5.44e-06 | 5.44 | > 48 | 9.81 | – | – | AC50 [4, 9]: 5.44e-06 M; CC50 at 48 h (in vitro [7]; Vero cells): > 50 µM |
| CC1(C)CC2C3=CCC4[C@@]5(C)CC[C@H](OC6OCC(O)C(OC7OC(CO)C(O)C(O)C7O)C6O)C(C)(C)C5CC[C@@]4(C)[C@]3(C)C[C@H](O)[C@@]2(CO)[C@H](OC(=O)c2ccccc2)C1 (some centres unmarked) [NCGC00347604-02] | – | – | – | – | -1.4 | -68.489 | -100.29 | – | – | – | – | 5.52 | – | – | AC50 [4, 10]: 7.78e-06 M; AC50 [4, 11]: 7.78e-06 M; IC50 [4, 12]: 7.78 µM; CC-v2 (curve class classification of the dose response curve) [4, 13]: -3; Efficacy [4, 14]: -34.889; IC50 [5, 15]: > 48 µM; CC50 (in vitro [7]): > 50 µM |
| CS[C@H]1SC[C@@H]2C(=O)N(C)[C@H](C(C)C)C(=O)OC[C@H](NC(=O)c3cnc4ccccc4n3)C(=O)N[C@H](C)C(=O)N(C)[C@H]1C(=O)N(C)[C@H](C(C)C)C(=O)OC[C@H](NC(=O)c1cnc3ccccc3n1)C(=O)N[C@H](C)C(=O)N2C [NCGC00163548-03] | No | No | No | No | -1.1 | -108.47 | -100.29 | – | – | – | – | – | 2.99e-09 | 2.99e-09 | Antiviral activity in human NPC [8]: moderate antiviral activity |
| C[C@H]1CC[C@@]2(OC1)O[C@H]1CC3[C@@H]4CC[C@@H]5C[C@@H](O[C@@H]6O[C@H](CO)[C@@H](O[C@@H]7O[C@@H](C)[C@H](O)[C@@H](O)[C@H]7O)[C@H](O)[C@H]6O[C@@H]6O[C@H](CO)[C@@H](O)[C@H](O)[C@H]6O)CC[C@]5(C)C4CC[C@]3(C)[C@H]1[C@@H]2C (some centres unmarked) [NCGC00347372-02, Asparanin B] | – | – | – | – | -1.2 | -51.182 | -100.305 | – | – | – | – | 6.19 | 1.27e-06 | 1.27e-06 | AC50 [4, 10]: 1.1e-05 M; AC50 [4, 11]: 1.1e-05 M; IC50 [4, 12]: 11 µM; CC-v2 (curve class classification of the dose response curve) [4, 13]: -2.2; Efficacy [4, 14]: -63.699; IC50 [5, 15]: 6.98 µM; CC50 at 48 h (in vitro [7]): > 50 µM |
| CC1=C[C@H]2O[C@@H]3[C@H](O)C[C@](C)([C@@]2(CO)[C@H](O)C1=O)[C@]31CO1 [NCGC00180572-02, vomitoxin] | Yes | Yes | Yes | Yes | -1.1 | -87.951 | -98.582 | -38.561 | – | – | – | – | – | – | Log AC50 (M) [3]: -7.0741 M; AC50 ([3]; read-out: AC50): 8.43e-08 M; Log AC50 (M) [4]: -6.2862 M; Max Resp [4]: -28.893; AC50 ([4]; read-out: AC50): 5.17e-07 M; IC50 [4]: 0.52 µM; IC50 [5]: 0.74 µM; IC50 [6]: 0.74 µM; CC-v2 (curve class) [8]: -1.1; Efficacy [8]: -97.398; Log AC50 (M) [8]: -5.35 M; Max Resp [8]: -88.056; AC50 ([8]; read-out: AC50): 4.47e-06 M; IC50 ([8]; read-out: IC50 in NPC): 4.4 µM; IC50 ([8]; read-out: NPC (ZIKV Antiviral Assays), IC50): 4.47 µM |
| CC[C@@H](C)[C@H](NC(=O)C(C)(C)NC(=O)[C@H](CCC(N)=O)NC(=O)C(C)(CC)NC(=O)[C@H](Cc1c[nH]c2ccccc12)NC(C)=O)C(=O)N[C@H](C(=O)NC(C)(C)C(=O)N[C@@H](CC(C)C)C(=O)NC(C)(C)C(=O)N1CCC[C@H]1C(=O)N[C@@H](CCC(N)=O)C(=O)NC(C)(C)C(=O)N1CC(O)C[C@H]1C(=O)NC(C)(CC)C(=O)C1CC[C@@H](C(=O)N[CH]Cc2ccccc2)N1)C(C)O (some centres unmarked) [NCGC00385349-01] (Ac-W[ξIva]Q[Aib][aIle][Thr(3ξ)][Aib]L[Aib]PQ[Aib][X1]-X2) | – | – | – | – | -1.4 | -52.827 | -100.29 | -36.779 | 1e-05 | 10 | > 48 | 4.52 | – | – | CC-v2 (curve class classification of the dose response curve) [4]: -3; AC50 [4, 9]: 1e-05 M; CC50 (in vitro [7]): > 50 µM |
